Experimental data from patent US20150355179A1, “CDKACT BIOSENSORS-FLUORESCENT POLYPEPTIDE TO PROBE THE ACTIVITY OF CDK/CYCLIN KINASES IN VITRO, IN CELLULO AND IN VIVO” (CENTRE NATIONAL DE LA RECHERCHE SCIENTIFIQUE (CNRS), priority 2012, published 2015).

Legend:
[1] = system: CDK/Cyclin kinase activity in HeLa cell extracts; assay: Fluorescence kinase assay of CDKACTH1 in HeLa cell extracts; format: biochemical; settings: 20 ug HeLa cell extracts, increasing concentrations of inhibitor
Experimental: (§1) Fluorescence kinase assays were performed in 96-well plates in a thermostated chamber (Polarstar BMG) at 30° C. in 200 ul phosphate buffer saline, pH 7.2, 150 mM NaCl, in the presence of 5 mM MgCl2, 0.5 mM ATP, except when stated otherwise. The fluorescence of Cy3-labelled CDKACTH1 with recombinant CDK/Cyclin complexes or with cell extracts was monitored over time. Changes in Cy3 fluorescence emission were recorded at 590 nm following excitation at 544 nm. In all experiments, the fluorescence of CDKACTH1-Cy3 alone was substracted from all other values. Data analysis and curve fitting were performed using the GraFit Software (Erathicus Ltd).
Cell culture media, serum and antibiotics were purchased from Invitrogen. HeLa, HS68, A549, MCF-7 and U2OS cells were cultured in DMEM+Glutamax supplemented with 10% FCS, 1 mM penicillin and 1 mM streptomycin at 37° C. in an atmosphere containing 5% CO2. HT2-19 cells, provided by Dr. A. Porter, were cultured in DMEM+NEAA, antibiotics, sodium pyruvate and glutamine, and supplemented with 10% FCS29. Cell extracts were prepared in TBS lysis buffer containing 50 mM TrisHCl, pH 7.4, 150 mM NaCl, 0.1% NP40, 0.1% Deoxycholate, 2 mM EDTA, 1 mM PMSF, Complete™ protease inhibitors (Roche), and normalized following spectrophometric dosage at 280 nm. Phosphatase inhibitors: 50 mM NaF, 40 mM β-Glycero-phosphate, 1 mM Na3VO4.
Kinase assays were performed in the same conditions as above. […] As shown in FIG. 4A-C, incubation of 20 ug HeLa cell extracts with CDKACTH1 yielded a very similar profile to that obtained with recombinant CDK/Cyclins, implying that these kinases were indeed phosphorylating the substrate sequence of the biosensor. […] Since phosphorylation events are counterbalanced by phosphatases in mammalian cell extracts, we asked whether the response measured would be further improved if phosphatase activity was blocked.

CDK4/Cyclin D = biological target: T1, CDK4/Cyclin D (Homo sapiens, UniProt P11802); assay: Real-time fluorescence kinase assay with recombinant CDK4/Cyclin D; format: biochemical; settings: 20 uM inhibitor; 75 nM CDK4/CyclinD, 25 nM CDKACTH1-Cy3
T1 construct: made in house; host or cells: E. coli
T1 sequence (P11802 whole entry, species assumed): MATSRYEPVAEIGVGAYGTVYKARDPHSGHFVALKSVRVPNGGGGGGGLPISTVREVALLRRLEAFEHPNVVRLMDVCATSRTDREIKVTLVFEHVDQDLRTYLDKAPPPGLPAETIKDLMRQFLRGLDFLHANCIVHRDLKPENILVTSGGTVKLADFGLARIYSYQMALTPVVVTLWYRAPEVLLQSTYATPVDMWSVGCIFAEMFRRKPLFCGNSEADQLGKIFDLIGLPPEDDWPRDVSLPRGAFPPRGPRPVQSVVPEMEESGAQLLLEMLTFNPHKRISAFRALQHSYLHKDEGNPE
T1 sequence (P24385 whole entry partner, species assumed): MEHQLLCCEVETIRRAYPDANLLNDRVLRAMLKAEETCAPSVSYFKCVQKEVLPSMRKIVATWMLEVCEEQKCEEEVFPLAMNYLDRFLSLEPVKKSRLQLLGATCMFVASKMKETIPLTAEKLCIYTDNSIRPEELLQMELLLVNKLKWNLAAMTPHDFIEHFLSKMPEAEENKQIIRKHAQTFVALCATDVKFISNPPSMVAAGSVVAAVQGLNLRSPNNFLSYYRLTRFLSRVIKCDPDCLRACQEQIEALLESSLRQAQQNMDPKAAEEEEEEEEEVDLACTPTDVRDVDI
Experimental: as §1
To address the issue of specificity, we asked whether other kinases could phosphorylate and thereby affect the fluorescence of CDKACTH1. We first examined CDK1/Cyclin B and CDK4/Cyclin D (FIGS. 3A and B).

A375 rvluc2 cells = assay: A375 xenograft tumour growth in NMRI nude mice; format: in vivo; settings: Roscovitine IP 50 mg/kg/day for 7 days
CDK2/Cyclin A = biological target: T2, CDK2/Cyclin A (Homo sapiens, UniProt P24941); assay: Real-time fluorescence kinase assay with recombinant active CDK2/Cyclin A; format: biochemical
T2 construct: made in house; host or cells: E. coli
Experimental: (§2) In order to characterize CDKACT-H1 biosensor in vitro, we first asked whether it could be used to monitor recombinant kinase activity in a real-time assay.
as §1, §2
In vitro characterization was performed as described in Example 2. […] Assays were performed at 30° C. for 1600s. Fluorescence emission of Cy5 was measured at 675 nm following excitation at 645 nm on Polarstar™ fluorimeter.
Assays were performed at 30° C. for 1600s. Fluorescence emission of Cy3 was measured at 590 nm following excitation at 544 nm on Polarstar™ fluorimeter.

In the case of `CC(=O)c1c(C)c2cnc(Nc3ccc(N4CCNCC4)cn3)nc2n(C2CCCC2)c1=O` [PD-0332991], the “share of CDKACTH1 phosphorylating activity attributed to the kinases blocked by the inhibitor” value (“share … by the inhibitor” for short) [1] is reported as “partial activity”.

For `O=C1NC(=NCc2cccs2)S/C1=C\c1ccc2ncccc2c1` [RO3306], the “share … by the inhibitor” value [1] was “larger part of activities”.

`CC[C@H](CO)Nc1nc(NCc2ccccc2)c2ncn(C(C)C)c2n1` [roscovitine] was tested, and the “effect of inhibitor on the CDKACTH1 fluorescence signal” value (CDK4/Cyclin D) was “no effect”, the “share … by the inhibitor” value [1] was “larger part of activities” and the “size of tumours compared to vehicle” value (A375 rvluc2 cells; versus DMSO vehicle) was 55.6%. For the same compound, the “size of tumours compared to control” value (A375 rvluc2 cells; versus non-treated control) was 53.8%.

With “CDKACTWWH1: peptide biosensor SEQ ID No 20: Pin1 WW phosphobinding domain, linker SEQ ID No 14, histone H1 substrate domain; synthesized, dye-labelled (KLPPGWEKRMSRSSGRVYYFNHITNASQWERPSGPGAGGTGGLPGGGGCSTPKKAKKL; Cy5 or Cy3 dye label; Polypeptide comprising: the WW domain of PIN1 wherein all Cystein residues are replaced by a Serine residue, a linker and the CDK substrate domain from histone H1)” the “fluorescence enhancement compared with CDKACTH1” value (CDK2/Cyclin A; 25 nM Cy3-labelled sensors, 25 nM active CDK2/Cyclin A3) was “greater changes in fluorescence enhancement” and the “fluorescence response to CDK2/CyclinA activity” value (CDK2/Cyclin A; 25 nM Cy5-CDKACT-WWH1, 25 nM active CDK2/Cyclin A3, 5 mM ATP, 20 mM MgCl2) was “significant changes in fluorescence enhancement”.
